Paper PMC12647645, “Structural interactions of BWC0977 with Klebsiella pneumoniae topoisomerase IV and biochemical basis of its broad-spectrum activity” (Communications Biology, 2025)
pIC50: −log10 of the molar value. Values after ≈ are worked out from the molar mass of the structure shown.

What was measured:
Human topo IIα = Human topo IIα (Homo sapiens, UniProt P11388); assay: Human topo IIα decatenation assay; assay type: biochemical; conditions: read-out: IC50 Human topo IIα decatenation
Method: (§1) Human topo IIα (0.9 nM) and topo IIß (2.2 nM) decatenation assays were performed following the same protocol used for bacterial topoisomerase IV decatenation assays. The assay buffer was made of 50 mM Tris. HCl (pH 7.5), 125 mM NaCl, 10 mM MgCl2, 5 mM DTT, and 100 μg/mL albumin.

Human topo IIß = Human topo IIß (Homo sapiens, UniProt Q02880); assay: Human topo IIß decatenation assay; assay type: biochemical
Method: as §1

P. aeruginosa gyrase = P. aeruginosa gyrase (Pseudomonas aeruginosa, UniProt P48372+Q9I7C2); assay: biochemical
[1] = molecular target: P. aeruginosa topoisomerase IV (Pseudomonas aeruginosa, UniProt Q9HUJ8+Q9HUK1); assay: Topoisomerase IV decatenation assay, P. aeruginosa; assay type: biochemical
Method: Topoisomerase IV decatenation reactions were performed using 2.5 nM E. coli enzyme and 60 ng kinetoplast DNA (kDNA) in an assay buffer containing 50 mM HEPES-KOH (pH 7.6), 100 mM potassium glutamate, 10 mM magnesium acetate, 10 mM DTT, 1 mM ATP, and 50 μg/mL albumin. Assays with P. aeruginosa topoisomerase IV (3 nM) were conducted in a similar buffer but with 50 mM HEPES-KOH (pH 7.9), 100 mM potassium glutamate, 6 mM magnesium acetate, 6 mM DTT, 1 mM ATP, 2 mM spermidine, and 50 μg/mL albumin. For S. aureus topoisomerase IV assay, the reactions contained 4 nM enzyme in an assay buffer composed of 50 mM Tris-HCl (pH 7.5), 5 mM MgCl₂, 5 mM DTT, 1.5 mM ATP, 350 mM potassium glutamate, and 0.05 mg/mL albumin. The procedures followed were consistent with those used in the supercoiling assays. Decatenated minicircles were resolved on 0.8% agarose gels, while the kDNA substrate remained in the wells. Gels were stained with 0.8 μg/mL ethidium bromide solution for 10 min, followed by destaining. DNA bands were visualized using a gel documentation system, and compound inhibition analysis was carried out using the same procedures described for the supercoiling assays.

[2] = system: E. coli MG1655 (GyrA WT, ParC WT); assay: microbe, parasite or virus in culture; assay type: cell-based; conditions: Escherichia coli
[3] = system: E. coli MG1655 GyrA D82N, ParC WT; assay: microbe, parasite or virus in culture; assay type: cell-based; conditions: Escherichia coli
[4] = system: E. coli MG1655 GyrA WT, ParC D79N; assay: microbe, parasite or virus in culture; assay type: cell-based; conditions: Escherichia coli
[5] = system: E. coli MG1655 GyrA D82N, ParC D79N; assay: microbe, parasite or virus in culture; assay type: cell-based; conditions: Escherichia coli
[6] = system: E. coli MG1655 GyrA M120A, ParC M118A; assay: microbe, parasite or virus in culture; assay type: cell-based; conditions: Escherichia coli
[7] = system: E. coli MG1655 GyrA R121K, ParC WT; assay: microbe, parasite or virus in culture; assay type: cell-based; conditions: Escherichia coli
[8] = system: E. coli MG1655 GyrA WT, ParC R119K; assay: microbe, parasite or virus in culture; assay type: cell-based; conditions: Escherichia coli
K. pneumoniae ATCC 13883 = assay: MIC broth microdilution; assay type: cell-based; conditions: Klebsiella pneumoniae, ATCC13883
S. aureus ATCC 29213 = assay: MIC broth microdilution; assay type: cell-based; conditions: Staphylococcus aureus, ATCC29213
E. coli ATCC 25922 [9] = assay: MIC broth microdilution; assay type: cell-based; conditions: Escherichia coli, ATCC25922
A. baumannii ATCC 19606 = assay: MIC broth microdilution; assay type: cell-based; conditions: Acinetobacter baumannii, ATCC19606
E. faecalis ATCC 29212 = assay: MIC broth microdilution; assay type: cell-based; conditions: Enterococcus faecalis, ATCC29212
P. aeruginosa ATCC 27853 = assay: MIC broth microdilution; assay type: cell-based; conditions: Pseudomonas aeruginosa, ATCC27853
E. coli BAA 2471 = assay: microbe, parasite or virus in culture; assay type: cell-based; conditions: Escherichia coli, BAA2471
E. coli BAA 2469 = assay: microbe, parasite or virus in culture; assay type: cell-based; conditions: Escherichia coli, BAA2469
K. pneumoniae BAA 2782 = assay: microbe, parasite or virus in culture; assay type: cell-based; conditions: Klebsiella pneumoniae, BAA2782
K. pneumoniae BAA 2784 = assay: microbe, parasite or virus in culture; assay type: cell-based; conditions: Klebsiella pneumoniae, BAA2784
A. baumannii BAA 2885 = assay: microbe, parasite or virus in culture; assay type: cell-based; conditions: Acinetobacter baumannii, BAA2885
K. pneumoniae KPNIH1 = assay: microbe, parasite or virus in culture; assay type: cell-based; conditions: Klebsiella pneumoniae
P. aeruginosa BAA 2794 = assay: microbe, parasite or virus in culture; assay type: cell-based; conditions: Pseudomonas aeruginosa, BAA2794
P. aeruginosa BAA 2797 = assay: microbe, parasite or virus in culture; assay type: cell-based; conditions: Pseudomonas aeruginosa, BAA2797
E. coli ATCC 25922 [10] = assay: Resistant mutant generation by serial passage method; assay type: cell-based; conditions: Escherichia coli, read-out: MIC, serial passage
K. pneumoniae = conditions: ref 7 (Arends et al., 2019); cited from earlier work
E. faecalis = system: E. faecalis; design: method as in ref 7 (Arends et al., 2019); conditions: ref 7 (Arends et al., 2019); cited from earlier work
S. aureus = conditions: ref 8 (Flamm et al., 2017); cited from earlier work
E. cloacae = conditions: ref 7 (Arends et al., 2019); cited from earlier work
E. coli = conditions: ref 8 (Flamm et al., 2017); cited from earlier work

P. aeruginosa gyrase, sequence (Q9I7C2 whole entry): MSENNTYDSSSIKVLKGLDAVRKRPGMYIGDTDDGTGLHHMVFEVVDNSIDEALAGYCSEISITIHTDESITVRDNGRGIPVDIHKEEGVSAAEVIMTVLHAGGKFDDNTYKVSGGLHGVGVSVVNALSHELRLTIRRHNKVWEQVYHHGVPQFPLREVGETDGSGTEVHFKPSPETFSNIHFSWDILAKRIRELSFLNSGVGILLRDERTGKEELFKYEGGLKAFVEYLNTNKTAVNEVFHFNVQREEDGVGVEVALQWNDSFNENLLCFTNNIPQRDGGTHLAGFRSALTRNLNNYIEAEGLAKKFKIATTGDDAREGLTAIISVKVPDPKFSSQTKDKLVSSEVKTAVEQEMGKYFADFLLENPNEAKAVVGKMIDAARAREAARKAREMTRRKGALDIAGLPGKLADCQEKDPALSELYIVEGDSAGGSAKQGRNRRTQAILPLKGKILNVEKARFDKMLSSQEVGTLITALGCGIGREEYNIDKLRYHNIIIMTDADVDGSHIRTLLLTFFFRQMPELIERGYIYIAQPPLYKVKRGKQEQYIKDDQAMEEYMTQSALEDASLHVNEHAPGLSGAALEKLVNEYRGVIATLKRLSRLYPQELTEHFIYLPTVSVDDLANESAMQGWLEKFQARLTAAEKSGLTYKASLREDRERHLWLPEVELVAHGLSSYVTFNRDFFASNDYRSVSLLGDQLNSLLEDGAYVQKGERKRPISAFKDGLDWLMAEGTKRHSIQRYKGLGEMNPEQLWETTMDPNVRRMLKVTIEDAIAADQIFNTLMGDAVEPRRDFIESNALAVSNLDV
P. aeruginosa gyrase, sequence (P48372 whole entry): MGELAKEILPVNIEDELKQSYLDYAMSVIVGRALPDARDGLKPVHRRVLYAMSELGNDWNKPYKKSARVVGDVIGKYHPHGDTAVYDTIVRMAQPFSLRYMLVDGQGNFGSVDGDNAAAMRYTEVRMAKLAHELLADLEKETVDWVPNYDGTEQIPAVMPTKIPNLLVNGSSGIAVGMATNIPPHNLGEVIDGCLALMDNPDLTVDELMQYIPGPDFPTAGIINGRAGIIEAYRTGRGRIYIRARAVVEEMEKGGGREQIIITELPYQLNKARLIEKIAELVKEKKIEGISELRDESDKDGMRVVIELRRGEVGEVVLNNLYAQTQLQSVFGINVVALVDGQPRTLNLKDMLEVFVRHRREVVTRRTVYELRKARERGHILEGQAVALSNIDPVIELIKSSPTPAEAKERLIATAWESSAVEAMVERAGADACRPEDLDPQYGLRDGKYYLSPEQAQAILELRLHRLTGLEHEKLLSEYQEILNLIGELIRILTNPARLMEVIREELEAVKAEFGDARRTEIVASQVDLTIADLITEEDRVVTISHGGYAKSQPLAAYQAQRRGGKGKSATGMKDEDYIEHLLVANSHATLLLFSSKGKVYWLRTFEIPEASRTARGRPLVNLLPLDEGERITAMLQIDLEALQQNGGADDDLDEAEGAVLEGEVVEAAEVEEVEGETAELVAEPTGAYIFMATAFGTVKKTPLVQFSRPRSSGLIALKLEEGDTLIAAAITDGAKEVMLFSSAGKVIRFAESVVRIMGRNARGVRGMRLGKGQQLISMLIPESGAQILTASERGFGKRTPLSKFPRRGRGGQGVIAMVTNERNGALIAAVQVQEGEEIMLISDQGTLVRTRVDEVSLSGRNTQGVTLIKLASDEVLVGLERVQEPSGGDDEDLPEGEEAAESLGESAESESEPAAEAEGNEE
Human topo IIß, sequence (Q02880 whole entry): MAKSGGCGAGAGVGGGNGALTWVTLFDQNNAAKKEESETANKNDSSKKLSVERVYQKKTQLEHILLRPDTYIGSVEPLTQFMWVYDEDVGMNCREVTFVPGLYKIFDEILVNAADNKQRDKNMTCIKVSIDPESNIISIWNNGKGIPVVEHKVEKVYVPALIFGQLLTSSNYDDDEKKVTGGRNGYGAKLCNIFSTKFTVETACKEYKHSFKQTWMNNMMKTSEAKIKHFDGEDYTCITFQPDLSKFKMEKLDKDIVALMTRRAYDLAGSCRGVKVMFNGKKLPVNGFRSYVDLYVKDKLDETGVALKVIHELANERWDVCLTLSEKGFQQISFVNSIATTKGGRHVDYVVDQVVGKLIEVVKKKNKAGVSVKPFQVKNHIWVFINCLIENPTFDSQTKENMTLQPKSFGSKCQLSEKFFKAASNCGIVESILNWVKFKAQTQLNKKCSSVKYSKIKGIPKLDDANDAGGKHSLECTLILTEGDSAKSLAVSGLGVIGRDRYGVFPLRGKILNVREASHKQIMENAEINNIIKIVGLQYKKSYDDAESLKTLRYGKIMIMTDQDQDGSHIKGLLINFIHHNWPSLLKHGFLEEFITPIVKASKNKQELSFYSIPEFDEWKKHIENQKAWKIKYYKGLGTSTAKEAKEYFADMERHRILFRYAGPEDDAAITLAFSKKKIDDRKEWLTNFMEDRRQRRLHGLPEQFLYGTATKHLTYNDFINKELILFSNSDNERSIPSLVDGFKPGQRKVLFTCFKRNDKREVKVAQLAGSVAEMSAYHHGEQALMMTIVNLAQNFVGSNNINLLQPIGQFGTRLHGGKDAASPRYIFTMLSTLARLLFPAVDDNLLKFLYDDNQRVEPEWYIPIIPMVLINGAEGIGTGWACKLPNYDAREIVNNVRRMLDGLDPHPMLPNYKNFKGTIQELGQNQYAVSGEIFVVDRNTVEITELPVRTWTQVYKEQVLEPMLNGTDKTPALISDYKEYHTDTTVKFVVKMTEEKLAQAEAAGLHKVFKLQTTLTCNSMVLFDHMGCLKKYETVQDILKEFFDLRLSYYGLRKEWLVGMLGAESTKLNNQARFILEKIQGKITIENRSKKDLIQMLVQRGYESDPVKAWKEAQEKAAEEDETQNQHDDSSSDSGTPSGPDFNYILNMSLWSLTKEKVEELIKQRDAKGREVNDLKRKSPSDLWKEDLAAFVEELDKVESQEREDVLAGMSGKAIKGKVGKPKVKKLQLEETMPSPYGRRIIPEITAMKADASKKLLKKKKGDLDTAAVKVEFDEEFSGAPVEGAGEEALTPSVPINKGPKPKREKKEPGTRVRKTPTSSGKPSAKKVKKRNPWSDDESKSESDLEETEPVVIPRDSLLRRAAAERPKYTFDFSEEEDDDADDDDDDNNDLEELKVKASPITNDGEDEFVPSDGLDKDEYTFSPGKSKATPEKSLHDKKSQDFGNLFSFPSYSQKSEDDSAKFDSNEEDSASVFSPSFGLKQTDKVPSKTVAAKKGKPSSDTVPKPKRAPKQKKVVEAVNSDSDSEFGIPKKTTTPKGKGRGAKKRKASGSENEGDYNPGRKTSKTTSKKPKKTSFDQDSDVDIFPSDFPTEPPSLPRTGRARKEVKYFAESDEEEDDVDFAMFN
Human topo IIα, sequence (P11388 whole entry): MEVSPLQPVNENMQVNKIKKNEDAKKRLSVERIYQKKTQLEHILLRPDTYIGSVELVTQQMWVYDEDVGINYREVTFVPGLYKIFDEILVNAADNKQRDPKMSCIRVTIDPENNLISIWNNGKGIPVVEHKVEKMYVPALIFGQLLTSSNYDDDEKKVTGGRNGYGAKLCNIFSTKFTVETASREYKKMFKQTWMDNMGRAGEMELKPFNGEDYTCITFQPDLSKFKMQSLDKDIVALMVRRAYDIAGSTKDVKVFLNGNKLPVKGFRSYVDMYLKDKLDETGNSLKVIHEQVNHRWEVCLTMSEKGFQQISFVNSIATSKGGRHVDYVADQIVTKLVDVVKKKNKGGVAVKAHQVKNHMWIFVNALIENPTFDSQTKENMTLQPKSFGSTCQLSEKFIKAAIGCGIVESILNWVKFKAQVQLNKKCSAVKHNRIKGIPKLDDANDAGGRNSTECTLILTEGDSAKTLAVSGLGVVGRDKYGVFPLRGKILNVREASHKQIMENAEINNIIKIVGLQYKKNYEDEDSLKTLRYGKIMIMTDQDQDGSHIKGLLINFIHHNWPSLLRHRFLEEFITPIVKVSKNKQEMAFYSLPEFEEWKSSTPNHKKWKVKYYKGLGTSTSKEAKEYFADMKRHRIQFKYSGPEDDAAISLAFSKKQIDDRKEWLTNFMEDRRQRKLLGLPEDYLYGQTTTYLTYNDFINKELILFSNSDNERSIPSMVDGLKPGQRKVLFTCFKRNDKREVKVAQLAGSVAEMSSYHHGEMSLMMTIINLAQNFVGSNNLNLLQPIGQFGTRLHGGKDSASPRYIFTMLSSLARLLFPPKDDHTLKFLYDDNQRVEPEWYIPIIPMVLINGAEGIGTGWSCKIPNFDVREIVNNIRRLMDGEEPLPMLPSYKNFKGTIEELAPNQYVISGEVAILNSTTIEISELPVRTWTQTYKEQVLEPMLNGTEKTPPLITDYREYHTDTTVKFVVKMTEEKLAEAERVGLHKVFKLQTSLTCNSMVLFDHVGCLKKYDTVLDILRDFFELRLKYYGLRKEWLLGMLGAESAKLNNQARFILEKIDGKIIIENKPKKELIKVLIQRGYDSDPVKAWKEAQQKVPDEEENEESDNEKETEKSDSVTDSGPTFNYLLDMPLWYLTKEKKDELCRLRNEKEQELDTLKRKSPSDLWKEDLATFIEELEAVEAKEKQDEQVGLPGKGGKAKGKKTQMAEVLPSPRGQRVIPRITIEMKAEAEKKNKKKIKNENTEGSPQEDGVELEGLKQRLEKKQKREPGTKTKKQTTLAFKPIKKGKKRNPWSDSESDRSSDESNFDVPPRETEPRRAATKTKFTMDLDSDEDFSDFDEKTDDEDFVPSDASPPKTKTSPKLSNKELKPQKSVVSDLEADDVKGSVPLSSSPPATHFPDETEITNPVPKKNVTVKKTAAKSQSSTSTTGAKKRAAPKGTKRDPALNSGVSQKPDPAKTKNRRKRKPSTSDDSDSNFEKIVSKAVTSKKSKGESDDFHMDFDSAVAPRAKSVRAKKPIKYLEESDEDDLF

O=c1ccc2ncc(=O)n3c2n1C[C@H]3CN1CCC(NCc2cc3c(cn2)OCCC3)CC1 [Gepotidacin, reference compound]
pIC50 (Human topo IIα): < 3.70 | pIC50 (Human topo IIß): < 3.70 | pIC50 (P. aeruginosa gyrase): 6.46 | pIC50 [1]: 5.81 | MIC [2]: 0.47 µg/mL (≈ 1.05 µM) | MIC [3]: 0.42 µg/mL (≈ 0.936 µM) | MIC [4]: 0.83 µg/mL (≈ 1.85 µM) | MIC [5]: > 40 µg/mL | MIC [6]: 0.63 µg/mL (≈ 1.4 µM) | MIC [7]: 0.13 µg/mL (≈ 0.29 µM) | MIC [8]: 0.42 µg/mL (≈ 0.936 µM) | MIC (K. pneumoniae ATCC 13883): 1 µg/mL (≈ 2.23 µM) | MIC (S. aureus ATCC 29213): 0.125 µg/mL (≈ 0.279 µM) | MIC (E. coli ATCC 25922 [9]): 0.5 µg/mL (≈ 1.11 µM) | MIC (A. baumannii ATCC 19606): 2 µg/mL (≈ 4.46 µM) | MIC (E. faecalis ATCC 29212): 1 µg/mL (≈ 2.23 µM) | MIC (P. aeruginosa ATCC 27853): 1 µg/mL (≈ 2.23 µM) | MIC (E. coli BAA 2471): 2 µg/mL (≈ 4.46 µM) | MIC (E. coli BAA 2469): 0.5 µg/mL (≈ 1.11 µM) | MIC (K. pneumoniae BAA 2782): 1 µg/mL (≈ 2.23 µM) | MIC (K. pneumoniae BAA 2784): 1 µg/mL (≈ 2.23 µM) | MIC (A. baumannii BAA 2885): 2 µg/mL (≈ 4.46 µM) | MIC (K. pneumoniae KPNIH1): 8 µg/mL (≈ 17.8 µM) | MIC (P. aeruginosa BAA 2794): 0.5 µg/mL (≈ 1.11 µM) | MIC (P. aeruginosa BAA 2797): 1 µg/mL (≈ 2.23 µM) | MIC (E. coli ATCC 25922 [10]; ATCC25922, 24 h): 0.25 µg/mL (≈ 0.557 µM) | MIC (E. coli ATCC 25922 [10]; ATCC25922, 288 h): 1.25 µg/mL (≈ 2.79 µM) | MIC90 against diverse global isolates (K. pneumoniae): 16 µg/mL (≈ 35.7 µM) | MIC90 against diverse global isolates (E. faecalis): 2 µg/mL (≈ 4.46 µM) | MIC90 against diverse global isolates (S. aureus): 0.5 µg/mL (≈ 1.11 µM) | MIC90 against diverse global isolates (E. cloacae): 16 µg/mL (≈ 35.7 µM) | MIC90 against diverse global isolates (E. coli): 4 µg/mL (≈ 8.92 µM)
